Our source for the IC50 values is ChEMBL document CHEMBL5604062, “ASAP - ZIKV NS2B-NS3 protease fluorescence dose response” (2024).

The structures appear in SMILES notation. Where “and” joins values, the source holds several entries; their conditions need not be identical. Equal values may be shown once.

Nonstructural protein 3, sequence (A0A024AXB9 whole entry): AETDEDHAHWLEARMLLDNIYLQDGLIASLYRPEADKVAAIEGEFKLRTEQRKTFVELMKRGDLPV

The experiment addresses Nonstructural protein 3 (Zika virus, UniProt A0A024AXB9). The experiment can be described thus: Functional biochemical assay to identify treatments for viral infectious disease that targets Zika NS2B-NS3 protease. Utilizing a direct enzyme activity measurement method, reading the fluorescence intensity is used to characterize the relative potency of inhibitors as IC50. On the set-up: species or system PRVABC59.
On to `NCc1cccc(NC(=O)[C@H](NS(=O)(=O)c2cccc(Cl)c2)c2ccc(OCc3ccccc3)cc2)c1`, for which half-maximal inhibition (IC50) was put at 57.2 µM.
Then `O=C(O)c1cc(Cl)ccc1S(=O)(=O)NC1CCN(Cc2ccc(F)c(F)c2)CC1`, with greater than 99.5 µM; and `CCN1CCN(c2ccc(NS(=O)(=O)c3ccc(Cl)cc3C(=O)O)cc2)CC1`, with greater than 99.5 µM; and `O=C(O)c1cc(Cl)ccc1S(=O)(=O)Nc1ccc(N2CCCCC2)c(Cl)c1`, with greater than 99.5 µM.
The compound `NCc1cccc(NC(=O)[C@@H]2C[C@@H]3CC[C@H]2N3C(=O)OCc2ccccc2)c1` had an IC50 greater than 99.5 µM.
Then `CCCNC(=O)Cn1ccnc(N2CC[C@H](CO)C2)c1=O`, with greater than 99.5 µM.
On to `NCc1ccc(CNC(=O)c2cc(Cl)cc(NC(=O)OCc3ccccc3)c2)cc1`, for which the half-maximal inhibitory concentration (IC50) came to 42.6 µM.
Then `O=C(O)c1cc(Cl)ccc1S(=O)(=O)NC1CCN(c2ccc(C(F)(F)F)cn2)CC1`, with greater than 99.5 µM; and `O=C(O)Cc1cc(NS(=O)(=O)c2ccc(Oc3ccccc3Cl)cc2)ccc1Cl`, with greater than 99.5 µM.
Take `CCC(=O)N1CCc2ccc(NS(=O)(=O)c3ccc(Cl)cc3C(=O)O)cc21`: the IC50 is greater than 99.5 µM.
For the compound `NCc1cccc(NC(=O)[C@H](NS(=O)(=O)C2CCCCC2)c2ccc(OCc3ccccc3)cc2)c1`, the IC50 came to 64.8 µM.
For `Cc1nn(C)cc1-c1ccc(S(=O)(=O)Nc2ccc(Cl)cc2C(=O)O)cc1`, the IC50 is greater than 99.5 µM.
Consider `NCc1cccc(NC(=O)C[C@H](NC(=O)OCc2ccccc2)c2ccc(OCc3ccccc3)c(Br)c2)c1`, for which the IC50 was 2.72 µM and 2.68 µM and 3.22 µM and 3.04 µM.
As for `NCc1cccc(NC(=O)C[C@@H](NC(=O)OCc2ccccc2)c2ccc3c(c2)OCO3)c1`, the figure is greater than 99.5 µM; as for `O=C(O)c1cc(Cl)ccc1S(=O)(=O)N[C@H]1CCn2c(nnc2C(F)(F)F)C1`, greater than 99.5 µM.
Then `O=C(Nc1ccc(NS(=O)(=O)c2ccc(Cl)cc2C(=O)O)cc1)c1ccccc1`, with greater than 99.5 µM; and `COc1ccc(N2CCC(NS(=O)(=O)c3ccc(Cl)cc3C(=O)O)CC2)cc1`, with greater than 99.5 µM.
As for `O=C(O)c1cc(Cl)ccc1S(=O)(=O)N[C@H]1CC[C@@H](Oc2ccccc2)CC1`, the figure is greater than 99.5 µM; as for `CCn1ccnc(N2CCC[C@H]2C(=O)O)c1=O`, greater than 99.5 µM; as for `COc1ccc(NS(=O)(=O)c2ccc(Cl)cc2C(=O)O)cc1-n1nnnc1C`, greater than 99.5 µM.
With `NCc1cccc(NC(=O)[C@H](NC(=O)Cc2ccccc2)c2ccc(OCc3ccccc3)cc2)c1`, the IC50 was 28.9 µM and 28.2 µM.
`O=C(O)c1cc(Cl)ccc1NS(=O)(=O)c1ccc(-c2ccccc2Cl)cc1` displayed an IC50 of 17.8 µM.
As for `O=C(O)c1cc(Cl)ccc1S(=O)(=O)NC1CCN(c2ncnc3c2CCC3)CC1`, the figure is greater than 99.5 µM.
As to `Cn1ccnc(N2CCC(NS(=O)(=O)c3ccc(Cl)cc3C(=O)O)CC2)c1=O`, the IC50 is greater than 99.5 µM.
As to `O=C(O)c1cc(Cl)ccc1S(=O)(=O)NC1CCN(S(=O)(=O)Cc2ccccc2)CC1`, the IC50 was greater than 99.5 µM.
As for `NCc1cccc(NC(=O)c2cc(NC(=O)OCc3ccccc3)c(=O)n3c2CCCC3)c1`, the figure is greater than 99.5 µM.
`COc1ncccc1-c1cccc([C@H](NC(=O)OCc2ccccc2)C(=O)Nc2cccc(CN)c2)c1` registered an IC50 of 67.4 µM.
Then `O=C(O)c1cc(Cl)ccc1NS(=O)(=O)c1ccc(-c2ccncc2)cc1`, with greater than 99.5 µM; and `O=C(O)c1cc(Cl)ccc1S(=O)(=O)Nc1ccc(CCN2CCCC2)cc1`, with greater than 99.5 µM.
In turn, `Cc1cc(N2CCCCC2)ccc1NS(=O)(=O)c1ccc(Cl)cc1C(=O)O` returned an IC50 greater than 99.5 µM.
`NCc1cccc(NC(=O)[C@H](NC(=O)c2ccns2)c2ccc(OCc3ccccc3)cc2)c1`: the midpoint of inhibition, the IC50, lay at 95.2 µM.
Then `COc1ccc(NS(=O)(=O)c2ccc(Cl)cc2C(=O)O)cc1N1CCCC1=O`, with greater than 99.5 µM; and `O=C(O)c1cc(Cl)ccc1S(=O)(=O)Nc1ccc(F)c(N2CCNC2=O)c1`, with greater than 99.5 µM.
As for `O=C(O)c1cc(Cl)ccc1NS(=O)(=O)c1ccc(-c2ccccc2F)cc1`, the figure is 29.2 µM; as for `O=C(O)c1cc(Cl)ccc1S(=O)(=O)Nc1ccc(N2CCCS2(=O)=O)cc1`, greater than 99.5 µM.
Consider `Cc1cc(N2CCC(NS(=O)(=O)c3ccc(Cl)cc3C(=O)O)CC2)nc(C)n1`, for which the IC50 is greater than 99.5 µM.
As to `O=C(Cn1ccnc(N2CC[C@H](CO)C2)c1=O)Nc1ccccc1`, the IC50 was greater than 99.5 µM.
Then `NCc1cccc(NC(=O)[C@H](NC(=O)COc2ccccc2)c2ccc(OCc3ccccc3)cc2)c1`, with 26.5 µM; and `CCn1c(=O)c(N2CC[C@H]3[C@H]2[C@H]3C(F)(F)F)nc2ccccc21`, with greater than 99.5 µM.
Then `Cn1cc(CCOc2ccc([C@@H](NC(=O)OCc3ccccc3)C(=O)Nc3cccc(CN)c3)cc2)nn1`, with greater than 99.5 µM.
`COC(=O)Cc1ccccc1-c1ccc(S(=O)(=O)Nc2ccc(Cl)cc2C(=O)O)cc1`: the IC50 was greater than 99.5 µM.
Then `O=C(O)c1cc(Cl)ccc1S(=O)(=O)Nc1ccc(Oc2ccccn2)cc1`, with greater than 99.5 µM.
As for `O=C(O)c1cc(Cl)ccc1S(=O)(=O)Nc1ccc(N2CCCCC2)c(F)c1`, the figure is greater than 99.5 µM.
Then `O=C(O)c1cc(Cl)ccc1S(=O)(=O)Nc1ccc(S(=O)(=O)N2CCCCC2)cc1`, with greater than 99.5 µM; and `Cc1ccc(S(=O)(=O)N2CCC(NS(=O)(=O)c3ccc(Cl)cc3C(=O)O)CC2)cc1`, with greater than 99.5 µM.
For the compound `CCC1([C@H](NC(=O)OCc2ccccc2)C(=O)Nc2cccc(CN)c2)CCCCC1`, the IC50 was greater than 99.5 µM.
In turn, `CCOC1CC(S(=O)(=O)N[C@H](C(=O)Nc2cccc(CN)c2)c2ccc(OCc3ccccc3)cc2)C1` (stereo partly specified) gave an IC50 greater than 99.5 µM.
Regarding `NCc1cccc(NC(=O)[C@H]2[C@@H]3CC[C@@H](C3)[C@H]2NC(=O)OCc2ccccc2)c1`, the IC50 was 30.8 µM and 30.7 µM.
As for `CCn1c(=O)c(N2CCC[C@@H]2c2cncn2C)nc2ccccc21`, the figure is greater than 99.5 µM; as for `CC(C)(C)OC(=O)NCc1cccc(NC(=O)[C@H](NC(=O)OCc2ccccc2)C2CCNCC2)c1`, greater than 99.5 µM; as for `N#Cc1ccccc1-c1ccc(S(=O)(=O)Nc2ccc(Cl)cc2C(=O)O)cc1`, 80 µM.
`CCn1c(=O)c(N2CCC[C@H]2C(=O)NC2CC2)nc2ccccc21` displayed an IC50 greater than 99.5 µM.
Then `NCc1cccc(NC(=O)[C@H](NC(=O)CCc2ccccc2)c2ccc(OCc3ccccc3)cc2)c1`, with 15.1 µM and 21.3 µM; and `CSc1ccc([C@H](CC(=O)Nc2cccc(CN)c2)NC(=O)OCc2ccccc2)cc1`, with 43.7 µM; and `O=C(O)c1cc(Cl)ccc1S(=O)(=O)NC1CCN(CC2CCOCC2)CC1`, with greater than 99.5 µM.
`NCc1cccc(NC(=O)c2cc(NC(=O)OCc3ccccc3)cc3c2OC(F)(F)O3)c1`: the IC50 is greater than 99.5 µM.
As for `O=C(O)c1cc(Cl)ccc1S(=O)(=O)Nc1ccc(N2CCCCCC2)cc1`, the IC50 was greater than 99.5 µM.
`COc1ccc(NS(=O)(=O)c2ccc(Cl)cc2C(=O)O)cc1OC1CCCC1` showed an IC50 greater than 99.5 µM.
Then `O=C(O)c1cc(Cl)ccc1NS(=O)(=O)c1ccc(-c2cn[nH]c2)cc1`, with greater than 99.5 µM.
Regarding `CCOc1cc(N2CCN(C)CC2)ccc1NS(=O)(=O)c1ccc(Cl)cc1C(=O)O`, the IC50 is greater than 99.5 µM.
As for `O=C(O)c1cc(Cl)c(F)cc1S(=O)(=O)Nc1ccc(Oc2ccccc2Cl)cc1`, the figure is 33.5 µM and 34.2 µM; as for `NCc1ccc(NC(=O)c2cc(Cl)cc(NC(=O)OCc3ccccc3)c2)cc1`, 10.3 µM.
As for `O=C(O)c1cc(Cl)ccc1S(=O)(=O)NC1CCN(S(=O)(=O)c2ccc(I)cc2)CC1`, the figure is greater than 99.5 µM; as for `O=C(O)c1cc(Cl)ccc1NS(=O)(=O)c1ccc(-c2cccc(F)c2F)cc1`, 25.7 µM; as for `O=C(O)c1cc(Cl)ccc1NS(=O)(=O)c1ccc(-c2ccc(F)cc2)cc1`, 32.9 µM.
As to `CCN1C(=O)CCc2cc(NS(=O)(=O)c3ccc(Cl)cc3C(=O)O)ccc21`, the IC50 was greater than 99.5 µM.
The compound `CN(C(=O)OCc1ccccc1)[C@H](C(=O)Nc1cccc(CN)c1)c1ccc(OCc2ccccc2)cc1` had an IC50 of 23.3 µM.
Turning to `O=C(O)c1cc(Cl)ccc1S(=O)(=O)NC1CCN(Cc2ccccn2)CC1`, the IC50 was greater than 99.5 µM.
Take `O=C(O)c1cc(Cl)ccc1S(=O)(=O)N[C@H]1CCN(Cc2ccccc2)C2(CC2)C1`: the IC50 is greater than 99.5 µM.
Then `CS(=O)(=O)c1ccc(-c2cccc([C@H](NC(=O)OCc3ccccc3)C(=O)Nc3cccc(CN)c3)c2)cn1`, with greater than 99.5 µM; and `CC1(NS(=O)(=O)c2ccc(Cl)cc2C(=O)O)CCN(c2ccccc2)CC1`, with greater than 99.5 µM; and `CCOCC(=O)N[C@H](C(=O)Nc1cccc(CN)c1)c1ccc(OCc2ccccc2)cc1`, with greater than 99.5 µM.
Take `O=C(O)c1cc(Cl)ccc1S(=O)(=O)NC1CCN(C(=O)c2ccccc2C(F)(F)F)CC1`: the IC50 is greater than 99.5 µM.
As for `NCc1cccc(NC(=O)[C@H](NC(=O)OCc2ccccc2)C2CCC(c3ccccc3)CC2)c1` (stereo partly specified), the figure is 7.6 µM and 7.31 µM.
As for `NCc1ccccc1NC(=O)c1cc(Cl)cc(NC(=O)OCc2ccccc2)c1`, the figure is greater than 99.5 µM; as for `COc1ccc(NS(=O)(=O)c2ccc(Cl)cc2C(=O)O)cc1S(=O)(=O)N1CCCC1`, greater than 99.5 µM.
`Cc1cc(C)n(-c2ccc(NS(=O)(=O)c3ccc(Cl)cc3C(=O)O)cc2)n1` displayed an IC50 greater than 99.5 µM.
On to `O=C(O)c1cc(Cl)ccc1S(=O)(=O)N[C@H]1CCN(Cc2ccccc2)C(=O)C1`, for which the IC50 is greater than 99.5 µM.
As for `O=C(O)c1cc(Cl)ccc1S(=O)(=O)N[C@H]1CC[C@H]2CN(Cc3ccccc3)C[C@H]2C1`, the figure is greater than 99.5 µM; as for `Cc1ncc(COc2ccc([C@H](NC(=O)OCc3ccccc3)C(=O)Nc3cccc(CN)c3)cc2)cn1`, greater than 99.5 µM; as for `CCCCN1Cc2ccc(NS(=O)(=O)c3ccc(Cl)cc3C(=O)O)cc2C1`, greater than 99.5 µM.
`CCn1c(=O)c(N2CC[C@]3(CCSC3)C2)nc2ccccc21` had an IC50 greater than 99.5 µM.
As for `NS(=O)(=O)c1cccc(-c2ccc(S(=O)(=O)Nc3ccc(Cl)cc3C(=O)O)cc2)c1`, the IC50 was greater than 99.5 µM.
Then `NCc1cccc(NC(=O)c2cc(Br)cc(NC(=O)OCc3ccccc3)c2)c1`, with 7.91 µM.
Then `CC(=O)N1CCN([C@H]2CC[C@H](NS(=O)(=O)c3ccc(Cl)cc3C(=O)O)CC2)CC1`, with greater than 99.5 µM; and `O=C(O)c1cc(Cl)ccc1S(=O)(=O)Nc1nn(Cc2ccccc2)cc1Cl`, with greater than 99.5 µM.
